Reference: US10590086B2, “Pharmaceutical compound” (IOmet Pharma Ltd., priority 2014, dated 2020)

Columns and labels:
IDO [1] = target: T1, IDO (Homo sapiens, UniProt P14902); assay: SKOV3 kynurenine cell-based assay (IDO induced by IFN-γ); set-up: IDO expression was induced in the SKOV3 cells by the addition of 500 ng/ml IFN-γ; endogenous in cells; host or cells: SKOV3 (human ovarian adenocarcinoma), induced with IFN-γ; conditions: 48 hours, read-out: SKOV3 Kynurenine cell based assay pIC50 (converted)
T1 sequence (P14902 whole entry): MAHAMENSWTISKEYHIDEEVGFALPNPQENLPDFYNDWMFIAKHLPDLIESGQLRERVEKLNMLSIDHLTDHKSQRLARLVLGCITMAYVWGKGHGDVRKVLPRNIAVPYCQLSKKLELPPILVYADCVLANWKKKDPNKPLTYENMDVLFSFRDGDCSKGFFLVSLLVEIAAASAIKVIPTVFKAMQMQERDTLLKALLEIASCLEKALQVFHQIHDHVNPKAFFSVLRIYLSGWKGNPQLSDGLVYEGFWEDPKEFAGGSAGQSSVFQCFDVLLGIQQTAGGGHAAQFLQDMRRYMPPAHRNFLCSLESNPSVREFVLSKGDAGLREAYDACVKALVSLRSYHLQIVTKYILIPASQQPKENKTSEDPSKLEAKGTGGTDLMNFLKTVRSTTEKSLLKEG
In short: (§1)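 First, A172 or SKOV3 cells were seeded in phenol red-free RPMI, 10% FCS, 2 mM L-glutamine, 500 μM L-tryptophan; SKOV3 received 500 ng/ml IFN-γ for IDO induction. Next came compound exposure, 48 hours, 37° C. Finally, cells were spun out, supernatant treated with Erhlich's reagent, absorbance read at 490 nm.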

TDO [2] = target: T2, TDO (Homo sapiens, UniProt P48775); assay: hTDO biochemical coupled assay; conditions: 330 μM L-tryptophan, read-out: hTDO biochemical assay pIC50 (converted)
T2 sequence (P48775 whole entry): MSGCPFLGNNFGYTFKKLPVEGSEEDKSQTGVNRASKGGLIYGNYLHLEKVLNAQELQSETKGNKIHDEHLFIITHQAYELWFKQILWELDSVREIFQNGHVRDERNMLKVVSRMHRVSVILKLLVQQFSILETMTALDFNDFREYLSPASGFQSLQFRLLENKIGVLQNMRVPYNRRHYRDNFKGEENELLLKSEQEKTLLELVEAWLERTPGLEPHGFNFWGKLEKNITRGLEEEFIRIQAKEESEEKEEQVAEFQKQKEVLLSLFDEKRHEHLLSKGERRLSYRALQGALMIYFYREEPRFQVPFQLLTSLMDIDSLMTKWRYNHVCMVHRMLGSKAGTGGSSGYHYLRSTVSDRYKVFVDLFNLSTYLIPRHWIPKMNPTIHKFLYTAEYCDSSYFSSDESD

IDO [3] = target: T1, IDO; assay: hIDO biochemical coupled assay; conditions: 45 μM L-tryptophan, read-out: hIDO biochemical assay pIC50 (converted)
TDO [4] = target: T2, TDO; assay: A172 kynurenine cell-based assay; set-up: This assay utilised cancer cells which expressed either TDO or IDO; endogenous in cells; host or cells: A172 (human glioblastoma); conditions: A172 human glioblastoma cells, 48 hours, read-out: A172 Kynurenine cell based assay pIC50 (converted)
In short: as §1

[5] = SKOV3 human ovarian adenocarcinoma cells, 500 ng/ml IFN-γ, 500 μM L-tryptophan

IC50 (IDO [1]; [5]) [µM]	IC50 (TDO [2]; 17 minutes, room temperature) [µM]	IC50 (IDO [3]; 17 minutes, room temperature) [µM]	IC50 (TDO [4]; 500 μM L-tryptophan) [µM]	IC50 (IDO [1]; SKOV3 cells, IDO induced by 500 ng/ml IFN-γ) [µM]	IC50 (TDO [2]) [µM]	IC50 (IDO [3]) [µM]	IC50 (TDO [4]) [µM]	Compound
3.24 to 31.6	< 3.16	> 100	< 3.16					CS(=O)(=O)N1CCC(n2cc(-c3cc(Cl)cc4[nH]ncc34)cn2)CC1 [Compound 347]
3.24 to 31.6	< 3.16	> 100	< 3.16					CC(=O)N1CCC(n2cc(-c3cc(Cl)cc4[nH]ncc34)cn2)CC1 [Compound 348]
32.4 to 100	< 3.16	32.4 to 100	< 3.16					CS(=O)(=O)N1CCC2(CCN(c3cc(Cl)cc4[nH]ncc34)CC2)C1 [Compound 349]
3.24 to 31.6	< 3.16	32.4 to 100	< 3.16					CC(=O)N1CCC2(CCN(c3cc(Cl)cc4[nH]ncc34)CC2)C1 [Compound 350]
3.24 to 31.6	< 3.16	32.4 to 100	< 3.16					CS(=O)(=O)N1CC2(CCN(c3cc(Cl)cc4[nH]ncc34)CC2)C1 [Compound 351]
< 3.16	< 3.16	3.24 to 31.6	< 3.16					CC(=O)N1CCC2(CC1)CCN(c1cc(Cl)cc3[nH]ncc13)CC2 [Compound 352]
32.4 to 100	< 3.16	> 100	< 3.16					Clc1cc(C2CCCCC2)c2cn[nH]c2c1 [Compound 353]
3.24 to 31.6	< 3.16	> 100	< 3.16					O=c1[nH]c2ccccc2n1C1CCN(c2cc(Cl)cc3[nH]ncc23)CC1 [Compound 354]
3.24 to 31.6	< 3.16	32.4 to 100	< 3.16					CS(=O)(=O)N1CCC2(CCN(c3cc(Cl)cc4[nH]ncc34)CC2)CC1 [Compound 355]
3.24 to 31.6	3.24 to 31.6	> 100	3.24 to 31.6					Cc1nc2c(n1C)CN(c1cc(Cl)cc3[nH]ncc13)CC2 [Compound 356]
< 3.16	3.24 to 31.6	> 100	< 3.16					Cc1nc2c(n1C)CN(c1cc(C(F)(F)F)cc3[nH]ncc13)CC2 [Compound 357]
3.24 to 31.6	< 3.16	> 100	< 3.16					CC(=O)Nc1ccc2c(c1)CCN(c1cc(Cl)cc3[nH]ncc13)C2 [Compound 358]
3.24 to 31.6	< 3.16	3.24 to 31.6	< 3.16					CC(=O)N1CC2(CCN(c3cc(Cl)cc4[nH]ncc34)CC2)C1 [Compound 359]
3.24 to 31.6	< 3.16	32.4 to 100	< 3.16					Cn1cc2c(n1)CCN(c1cc(Cl)cc3[nH]ncc13)C2 [Compound 360]
3.24 to 31.6	< 3.16	3.24 to 31.6	< 3.16					NS(=O)(=O)N1CCC2(CCN(c3cc(Cl)cc4[nH]ncc34)CC2)C1 [Compound 361]
3.24 to 31.6	< 3.16	> 100	3.24 to 31.6					CN(C)C(=O)CC1CCN(c2cc(Cl)cc3[nH]ncc23)CC1 [Compound 362]
3.24 to 31.6	< 3.16	32.4 to 100	< 3.16					NS(=O)(=O)N1CCC2(CCN(c3cc(Cl)cc4[nH]ncc34)CC2)CC1 [Compound 363]
3.24 to 31.6	< 3.16	> 100	< 3.16					CNC(=O)CC1CCN(c2cc(Cl)cc3[nH]ncc23)CC1 [Compound 364]
3.24 to 31.6	< 3.16	> 100	< 3.16					Clc1cc(N2CCN(c3nccs3)CC2)c2cn[nH]c2c1 [Compound 365]
3.24 to 31.6	3.24 to 31.6	> 100	< 3.16					Cn1cc(-c2cc(Cl)cc3[nH]ncc23)cn1 [Compound 366]
3.24 to 31.6	< 3.16	3.24 to 31.6	< 3.16					NS(=O)(=O)N1CC2(CCN(c3cc(Cl)cc4[nH]ncc34)CC2)C1 [Compound 367]
3.24 to 31.6	3.24 to 31.6	> 100	3.24 to 31.6					CS(=O)(=O)c1ccc(Oc2cc(Cl)cc3[nH]ncc23)cc1 [Compound 368]

IC50 (IDO [1]; [5]) [µM]	IC50 (TDO [2]; 17 minutes, room temperature) [µM]	IC50 (IDO [3]; 17 minutes, room temperature) [µM]	IC50 (TDO [4]; 500 μM L-tryptophan) [µM]	IC50 (IDO [1]; SKOV3 cells, IDO induced by 500 ng/ml IFN-γ) [µM]	IC50 (TDO [2]) [µM]	IC50 (IDO [3]) [µM]	IC50 (TDO [4]) [µM]	Compound
3.24 to 31.6	< 3.16	3.24 to 31.6	< 3.16					Cn1ncc2c1CCN(c1cc(Cl)cc3[nH]ncc13)C2 [Compound 369]
< 3.16	< 3.16	< 3.16	< 3.16					CC1(C)CN(c2cc(C(F)F)cc3[nH]ncc23)CCN1S(C)(=O)=O [Compound 370]
3.24 to 31.6	< 3.16	> 100	3.24 to 31.6					O=C1Nc2ccccc2C12CCN(c1cc(Cl)cc3[nH]ncc13)CC2 [Compound 371]
3.24 to 31.6	< 3.16	> 100	< 3.16					O=C1CCCN1C1CCN(c2cc(Cl)cc3[nH]ncc23)CC1 [Compound 372]
32.4 to 100	3.24 to 31.6	> 100	< 3.16					CS(=O)(=O)NCCn1cc(-c2cc(Cl)cc3[nH]ncc23)cn1 [Compound 373]
32.4 to 100	3.24 to 31.6	> 100	< 3.16					Clc1cc(N2CCN(c3ccncc3)CC2)c2cn[nH]c2c1 [Compound 374]
3.24 to 31.6	< 3.16	> 100	< 3.16					Clc1cc(N2CCN(c3cccnc3)CC2)c2cn[nH]c2c1 [Compound 375]
3.24 to 31.6	< 3.16	> 100	< 3.16					Cc1nn(C)c2c1CN(c1cc(Cl)cc3[nH]ncc13)CC2 [Compound 376]
3.24 to 31.6	< 3.16	32.4 to 100	< 3.16					CNC(=O)NC1CCN(c2cc(Cl)cc3[nH]ncc23)CC1 [Compound 377]
3.24 to 31.6	< 3.16	> 100	< 3.16					Cc1c2c(nn1C)CCN(c1cc(Cl)cc3[nH]ncc13)C2 [Compound 378]
> 100	< 3.16	> 100	< 3.16					CC(=O)NCCN1CCN(c2cc(Cl)cc3[nH]ncc23)CC1 [Compound 379]
3.24 to 31.6	3.24 to 31.6	> 100	3.24 to 31.6					CN1CNC(=O)C12CCN(c1cc(Cl)cc3[nH]ncc13)CC2 [Compound 380]
3.24 to 31.6	< 3.16	> 100	< 3.16					CNC(=O)C1(C)CCN(c2cc(Cl)cc3[nH]ncc23)CC1 [Compound 382]
> 100	> 100	> 100	32.4 to 100					CS(=O)(=O)N1CCC(c2cc(N3CCCC3)cc3[nH]ncc23)CC1 [Compound 383]
3.24 to 31.6	< 3.16	3.24 to 31.6	< 3.16					CS(=O)(=O)c1ccc(-c2cc(Cl)cc3[nH]ncc23)c(Cl)c1 [Compound 384]
3.24 to 31.6	< 3.16	3.24 to 31.6	< 3.16					CS(=O)(=O)N1CCC(c2cc(C(F)F)cc3[nH]ncc23)CC1 [Compound 387]
< 3.16	< 3.16	< 3.16	< 3.16					CC(C)CN1C(=O)NC2(CCN(c3cc(Cl)cc4[nH]ncc34)CC2)C1=O [Compound 388]
< 3.16	< 3.16	< 3.16	< 3.16					O=C1NC2(CCN(c3cc(Cl)cc4[nH]ncc34)CC2)C(=O)N1CC1CCCCC1 [Compound 389]
< 3.16	< 3.16	< 3.16	< 3.16					O=C1NC2(CCN(c3cc(Cl)cc4[nH]ncc34)CC2)C(=O)N1CC1CC1 [Compound 390]
< 3.16	< 3.16	< 3.16	< 3.16					O=C1NC2(CCN(c3cc(Cl)cc4[nH]ncc34)CC2)C(=O)N1CC1CCOCC1 [Compound 391]
< 3.16	< 3.16	< 3.16	< 3.16					CN(C)CCN1C(=O)NC2(CCN(c3cc(Cl)cc4[nH]ncc34)CC2)C1=O [Compound 392]
32.4 to 100	< 3.16	32.4 to 100	< 3.16	38	0.245	51.3	0.055	O=C1N[C@H]2CC[C@@H]1CN(c1cc(Cl)cc3[nH]ncc13)C2 [Compound 393, (1R,5S)-3-(6-chloro-1H-indazol-4-yl)-3,6-diazabicyclo[3.2.2]nonan-7-one]

Compound	IC50 (IDO [1]; [5]) [µM]	IC50 (TDO [2]; 17 minutes, room temperature) [µM]	IC50 (IDO [3]; 17 minutes, room temperature) [µM]	IC50 (TDO [4]; 500 μM L-tryptophan) [µM]	IC50 (IDO [1]; SKOV3 cells, IDO induced by 500 ng/ml IFN-γ) [µM]	IC50 (TDO [2]) [µM]	IC50 (IDO [3]) [µM]	IC50 (TDO [4]) [µM]
Clc1cc(N2CCc3ccncc3C2)c2cn[nH]c2c1 [Compound 346]	3.24 to 31.6	< 3.16	> 100	< 3.16				
